Patent US10231954B2, “Neurodegenerative therapies” (LYTIX BIOPHARMA AS, priority 2014, dated 2019)
Read-outs that look alike come from different tables or passages of the source.

What was measured:
Type in all cases: biochemical
FGF-R1 = FGF-R1 (Homo sapiens, UniProt P11362); assay: Kinase profiling FGF-R1; conditions: for remaining activity at 100 µM: read-out: residual kinase activity, FGF-R1
Text: (§1) Any value less that 25 is considered to be highly significant inhibition.

HIPK1 = HIPK1 (Homo sapiens, UniProt Q86Z02); assay: Kinase profiling HIPK1; conditions: for remaining activity at 100 µM: read-out: residual kinase activity, HIPK1
Text: as §1

YES1 = YES1 (Homo sapiens, UniProt P07947); assay: Kinase profiling YES1; conditions: for remaining activity at 100 µM: read-out: residual kinase activity, YES1
Text: as §1

WNK1 = WNK1 (Homo sapiens, UniProt Q9H4A3); assay: Kinase profiling WNK1; conditions: for remaining activity at 100 µM: read-out: residual kinase activity, WNK1
Sequence of WNK1 (Q9H4A3 whole entry, species assumed): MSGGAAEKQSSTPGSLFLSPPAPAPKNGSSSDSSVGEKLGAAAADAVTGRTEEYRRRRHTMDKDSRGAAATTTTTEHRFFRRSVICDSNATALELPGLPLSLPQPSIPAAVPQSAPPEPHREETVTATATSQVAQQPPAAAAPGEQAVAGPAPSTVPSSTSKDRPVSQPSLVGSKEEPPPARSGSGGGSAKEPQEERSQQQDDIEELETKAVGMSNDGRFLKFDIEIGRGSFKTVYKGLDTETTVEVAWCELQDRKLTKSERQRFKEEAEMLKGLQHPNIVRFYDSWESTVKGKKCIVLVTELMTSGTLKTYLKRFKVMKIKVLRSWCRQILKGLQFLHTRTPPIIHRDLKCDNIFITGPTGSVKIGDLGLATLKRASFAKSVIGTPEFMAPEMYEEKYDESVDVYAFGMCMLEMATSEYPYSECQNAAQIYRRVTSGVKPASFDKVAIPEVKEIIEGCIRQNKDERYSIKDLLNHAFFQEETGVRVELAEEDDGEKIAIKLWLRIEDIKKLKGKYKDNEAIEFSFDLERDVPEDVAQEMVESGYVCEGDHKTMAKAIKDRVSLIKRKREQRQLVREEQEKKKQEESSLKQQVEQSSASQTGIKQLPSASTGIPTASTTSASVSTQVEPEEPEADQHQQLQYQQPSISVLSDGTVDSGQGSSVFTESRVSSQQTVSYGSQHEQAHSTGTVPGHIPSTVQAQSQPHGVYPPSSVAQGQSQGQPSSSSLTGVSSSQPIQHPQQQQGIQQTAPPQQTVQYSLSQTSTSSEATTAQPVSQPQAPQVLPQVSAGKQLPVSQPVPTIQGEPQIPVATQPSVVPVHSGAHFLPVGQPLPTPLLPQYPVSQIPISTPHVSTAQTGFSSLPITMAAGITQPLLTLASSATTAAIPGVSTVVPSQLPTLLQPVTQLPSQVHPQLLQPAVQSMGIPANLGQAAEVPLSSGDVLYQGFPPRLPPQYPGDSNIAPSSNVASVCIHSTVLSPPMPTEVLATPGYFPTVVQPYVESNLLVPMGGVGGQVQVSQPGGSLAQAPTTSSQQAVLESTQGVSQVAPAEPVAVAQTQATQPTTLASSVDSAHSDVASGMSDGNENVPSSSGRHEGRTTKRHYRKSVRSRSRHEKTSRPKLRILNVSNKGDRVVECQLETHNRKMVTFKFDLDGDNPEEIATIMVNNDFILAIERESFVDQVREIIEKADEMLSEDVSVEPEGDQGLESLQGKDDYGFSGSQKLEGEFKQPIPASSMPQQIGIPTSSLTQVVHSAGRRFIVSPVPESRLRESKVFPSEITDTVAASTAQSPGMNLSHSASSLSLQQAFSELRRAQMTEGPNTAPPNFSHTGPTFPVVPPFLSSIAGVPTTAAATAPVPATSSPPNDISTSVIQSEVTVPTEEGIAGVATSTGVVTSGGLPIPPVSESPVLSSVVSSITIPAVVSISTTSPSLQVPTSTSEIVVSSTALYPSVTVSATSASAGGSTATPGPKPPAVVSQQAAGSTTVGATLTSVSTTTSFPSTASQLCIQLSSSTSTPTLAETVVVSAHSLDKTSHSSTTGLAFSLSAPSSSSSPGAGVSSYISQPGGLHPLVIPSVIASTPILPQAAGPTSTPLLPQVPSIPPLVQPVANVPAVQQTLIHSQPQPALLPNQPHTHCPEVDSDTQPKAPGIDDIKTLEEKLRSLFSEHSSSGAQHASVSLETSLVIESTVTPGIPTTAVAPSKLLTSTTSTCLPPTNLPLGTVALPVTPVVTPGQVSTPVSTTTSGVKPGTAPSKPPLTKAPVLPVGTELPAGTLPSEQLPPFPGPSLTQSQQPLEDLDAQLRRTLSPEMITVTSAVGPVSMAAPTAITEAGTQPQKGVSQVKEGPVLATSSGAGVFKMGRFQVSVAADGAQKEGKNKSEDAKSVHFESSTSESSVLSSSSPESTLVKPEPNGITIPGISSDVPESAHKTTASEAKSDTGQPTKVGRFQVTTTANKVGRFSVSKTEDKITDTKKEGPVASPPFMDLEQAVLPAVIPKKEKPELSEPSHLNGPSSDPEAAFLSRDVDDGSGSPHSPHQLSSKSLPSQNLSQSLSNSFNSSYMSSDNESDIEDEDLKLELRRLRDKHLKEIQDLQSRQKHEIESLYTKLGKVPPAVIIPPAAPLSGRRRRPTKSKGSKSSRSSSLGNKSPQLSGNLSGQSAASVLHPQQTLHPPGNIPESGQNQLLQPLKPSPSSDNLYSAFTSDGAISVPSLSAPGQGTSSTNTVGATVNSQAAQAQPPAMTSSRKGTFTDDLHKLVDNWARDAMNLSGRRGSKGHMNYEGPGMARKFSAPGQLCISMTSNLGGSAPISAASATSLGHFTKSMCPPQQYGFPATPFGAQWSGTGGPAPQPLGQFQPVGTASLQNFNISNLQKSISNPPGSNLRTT
Text: as §1

ABL = ABL (Homo sapiens, UniProt P00519); assay: Kinase profiling ABL; conditions: for remaining activity at 100 µM: read-out: residual kinase activity, ABL
Sequence of ABL (P00519 whole entry, species assumed): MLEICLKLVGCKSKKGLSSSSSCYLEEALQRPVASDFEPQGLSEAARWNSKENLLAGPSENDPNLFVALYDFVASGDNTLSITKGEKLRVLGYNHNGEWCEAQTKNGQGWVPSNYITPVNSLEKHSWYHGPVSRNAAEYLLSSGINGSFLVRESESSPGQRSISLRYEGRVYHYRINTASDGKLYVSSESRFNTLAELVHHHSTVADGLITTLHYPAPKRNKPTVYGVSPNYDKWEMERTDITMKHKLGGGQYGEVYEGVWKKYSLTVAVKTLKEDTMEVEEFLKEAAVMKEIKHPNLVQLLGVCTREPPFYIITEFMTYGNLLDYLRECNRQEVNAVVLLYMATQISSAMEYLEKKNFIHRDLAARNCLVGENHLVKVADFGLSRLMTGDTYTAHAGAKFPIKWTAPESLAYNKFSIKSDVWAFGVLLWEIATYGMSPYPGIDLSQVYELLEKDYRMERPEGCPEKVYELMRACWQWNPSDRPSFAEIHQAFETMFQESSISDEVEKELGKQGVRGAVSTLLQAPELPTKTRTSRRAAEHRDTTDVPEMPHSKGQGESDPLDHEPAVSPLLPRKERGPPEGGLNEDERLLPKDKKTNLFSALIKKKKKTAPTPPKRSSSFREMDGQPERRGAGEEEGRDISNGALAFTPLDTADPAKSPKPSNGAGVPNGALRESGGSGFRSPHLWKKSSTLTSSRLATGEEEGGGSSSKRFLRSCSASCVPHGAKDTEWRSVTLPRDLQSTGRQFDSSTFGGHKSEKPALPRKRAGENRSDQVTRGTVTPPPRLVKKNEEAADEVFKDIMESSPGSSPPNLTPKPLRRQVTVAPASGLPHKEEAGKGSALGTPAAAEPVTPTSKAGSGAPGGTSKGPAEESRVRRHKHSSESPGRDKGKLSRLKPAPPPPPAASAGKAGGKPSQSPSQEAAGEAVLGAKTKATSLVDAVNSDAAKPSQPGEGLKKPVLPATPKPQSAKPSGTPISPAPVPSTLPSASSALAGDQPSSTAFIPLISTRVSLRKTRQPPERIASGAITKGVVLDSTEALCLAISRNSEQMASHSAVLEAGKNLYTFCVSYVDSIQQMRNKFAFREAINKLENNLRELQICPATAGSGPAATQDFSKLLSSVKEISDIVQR
Text: as §1

MST3 = MST3 (Homo sapiens, UniProt Q9Y6E0); assay: Kinase profiling MST3; conditions: for remaining activity at 100 µM: read-out: residual kinase activity, MST3
Text: as §1

TTBK1 = TTBK1 (Homo sapiens, UniProt Q5TCY1); assay: Kinase profiling TTBK1; conditions: for remaining activity at 100 µM: read-out: residual kinase activity, TTBK1
Sequence of TTBK1 (Q5TCY1 whole entry, species assumed): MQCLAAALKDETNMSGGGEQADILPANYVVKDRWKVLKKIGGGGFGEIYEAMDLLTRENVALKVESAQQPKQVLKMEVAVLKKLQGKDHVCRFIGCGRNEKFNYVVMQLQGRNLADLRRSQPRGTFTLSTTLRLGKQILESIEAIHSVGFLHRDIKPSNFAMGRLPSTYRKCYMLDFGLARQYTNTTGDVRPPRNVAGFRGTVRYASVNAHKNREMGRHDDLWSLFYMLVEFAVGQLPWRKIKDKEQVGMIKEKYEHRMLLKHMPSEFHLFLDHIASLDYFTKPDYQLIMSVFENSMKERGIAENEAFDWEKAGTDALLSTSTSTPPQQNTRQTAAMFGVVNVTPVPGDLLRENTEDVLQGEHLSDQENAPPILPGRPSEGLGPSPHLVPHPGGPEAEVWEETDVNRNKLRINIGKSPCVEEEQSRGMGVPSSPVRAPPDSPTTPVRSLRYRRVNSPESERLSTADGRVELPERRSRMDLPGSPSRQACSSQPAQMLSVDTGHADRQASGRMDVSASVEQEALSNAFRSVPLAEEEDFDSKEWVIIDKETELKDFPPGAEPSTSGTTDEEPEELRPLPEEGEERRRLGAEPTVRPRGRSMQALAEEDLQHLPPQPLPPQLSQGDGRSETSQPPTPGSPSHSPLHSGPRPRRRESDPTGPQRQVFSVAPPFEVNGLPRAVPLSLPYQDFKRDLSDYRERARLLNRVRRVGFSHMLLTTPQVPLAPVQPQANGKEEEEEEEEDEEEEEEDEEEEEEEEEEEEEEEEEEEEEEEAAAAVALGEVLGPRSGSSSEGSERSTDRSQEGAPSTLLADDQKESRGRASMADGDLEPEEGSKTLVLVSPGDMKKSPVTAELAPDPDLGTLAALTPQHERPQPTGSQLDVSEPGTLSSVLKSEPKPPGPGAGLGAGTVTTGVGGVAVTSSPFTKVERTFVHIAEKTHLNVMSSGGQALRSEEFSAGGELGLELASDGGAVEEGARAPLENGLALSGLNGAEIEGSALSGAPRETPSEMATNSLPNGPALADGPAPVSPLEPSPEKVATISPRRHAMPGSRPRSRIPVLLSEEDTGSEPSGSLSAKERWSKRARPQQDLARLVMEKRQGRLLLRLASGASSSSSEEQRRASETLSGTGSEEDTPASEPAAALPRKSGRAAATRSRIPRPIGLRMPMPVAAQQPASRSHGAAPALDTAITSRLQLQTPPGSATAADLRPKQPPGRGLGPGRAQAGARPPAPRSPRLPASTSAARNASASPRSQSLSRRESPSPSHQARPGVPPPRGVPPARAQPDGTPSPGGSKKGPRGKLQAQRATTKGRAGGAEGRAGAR
Text: as §1

MNK2 = MNK2 (Homo sapiens, UniProt Q9HBH9); assay: Kinase profiling MNK2; conditions: for remaining activity at 100 µM: read-out: residual kinase activity, MNK2
Text: as §1

PAK5 = PAK5 (Homo sapiens, UniProt Q9P286); assay: Kinase profiling PAK5; conditions: for remaining activity at 100 µM: read-out: residual kinase activity, PAK5
Text: as §1

ZAP70 = target: T1, ZAP70 (Homo sapiens, UniProt P43403); assay: Kinase profiling ZAP70; conditions: for remaining activity at 100 µM: read-out: residual kinase activity, ZAP70
T1 sequence (P43403 1-619): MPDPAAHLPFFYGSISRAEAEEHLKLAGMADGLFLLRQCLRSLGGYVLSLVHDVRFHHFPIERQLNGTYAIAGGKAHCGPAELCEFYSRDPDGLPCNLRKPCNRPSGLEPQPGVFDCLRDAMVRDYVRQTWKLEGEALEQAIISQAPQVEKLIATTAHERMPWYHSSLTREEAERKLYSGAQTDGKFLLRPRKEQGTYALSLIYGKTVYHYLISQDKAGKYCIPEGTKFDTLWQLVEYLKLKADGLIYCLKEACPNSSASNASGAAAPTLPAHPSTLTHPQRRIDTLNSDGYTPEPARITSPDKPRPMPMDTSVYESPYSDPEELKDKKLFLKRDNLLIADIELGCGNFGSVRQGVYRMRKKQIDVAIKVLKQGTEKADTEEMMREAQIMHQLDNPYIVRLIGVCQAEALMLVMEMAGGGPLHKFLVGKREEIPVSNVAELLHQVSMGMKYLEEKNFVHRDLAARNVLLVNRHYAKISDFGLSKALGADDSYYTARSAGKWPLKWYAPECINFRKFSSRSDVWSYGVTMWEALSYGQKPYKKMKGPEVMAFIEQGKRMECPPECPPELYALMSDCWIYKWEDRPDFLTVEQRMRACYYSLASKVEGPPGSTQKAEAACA
Text: as §1

MAP4K3 = target: T2, MAP4K3 (Homo sapiens, UniProt Q8IVH8); assay: Kinase profiling MAP4K3; conditions: for remaining activity at 100 µM: read-out: residual kinase activity, MAP4K3
T2 sequence (Q8IVH8 1-894): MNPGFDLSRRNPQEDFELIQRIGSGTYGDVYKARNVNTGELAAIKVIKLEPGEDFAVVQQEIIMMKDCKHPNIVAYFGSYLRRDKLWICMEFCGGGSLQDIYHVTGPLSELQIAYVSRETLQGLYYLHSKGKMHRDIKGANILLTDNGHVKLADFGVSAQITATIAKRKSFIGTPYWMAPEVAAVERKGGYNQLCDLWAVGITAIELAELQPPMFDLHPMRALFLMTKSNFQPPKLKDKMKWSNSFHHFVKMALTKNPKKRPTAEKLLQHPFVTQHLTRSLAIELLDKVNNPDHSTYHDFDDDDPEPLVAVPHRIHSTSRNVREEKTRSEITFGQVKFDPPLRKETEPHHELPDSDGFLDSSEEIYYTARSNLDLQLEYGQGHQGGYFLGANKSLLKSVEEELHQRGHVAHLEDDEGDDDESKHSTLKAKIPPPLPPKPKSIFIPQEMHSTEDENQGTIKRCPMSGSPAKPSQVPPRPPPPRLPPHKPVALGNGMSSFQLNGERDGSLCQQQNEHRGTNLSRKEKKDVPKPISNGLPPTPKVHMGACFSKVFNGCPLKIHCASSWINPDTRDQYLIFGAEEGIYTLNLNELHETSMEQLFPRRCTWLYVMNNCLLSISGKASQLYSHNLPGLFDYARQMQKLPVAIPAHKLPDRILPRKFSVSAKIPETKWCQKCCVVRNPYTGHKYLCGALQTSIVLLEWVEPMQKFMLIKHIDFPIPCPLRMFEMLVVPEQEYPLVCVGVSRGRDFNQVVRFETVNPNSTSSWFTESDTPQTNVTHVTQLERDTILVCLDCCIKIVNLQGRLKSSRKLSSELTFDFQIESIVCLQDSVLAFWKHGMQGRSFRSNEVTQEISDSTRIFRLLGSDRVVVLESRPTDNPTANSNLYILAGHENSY
Text: as §1

NEK2a = target: T3, NEK2a (Homo sapiens, UniProt P51955); assay: Kinase profiling NEK2a; conditions: for remaining activity at 100 µM: read-out: residual kinase activity, NEK2a
T3 sequence (P51955 1-445): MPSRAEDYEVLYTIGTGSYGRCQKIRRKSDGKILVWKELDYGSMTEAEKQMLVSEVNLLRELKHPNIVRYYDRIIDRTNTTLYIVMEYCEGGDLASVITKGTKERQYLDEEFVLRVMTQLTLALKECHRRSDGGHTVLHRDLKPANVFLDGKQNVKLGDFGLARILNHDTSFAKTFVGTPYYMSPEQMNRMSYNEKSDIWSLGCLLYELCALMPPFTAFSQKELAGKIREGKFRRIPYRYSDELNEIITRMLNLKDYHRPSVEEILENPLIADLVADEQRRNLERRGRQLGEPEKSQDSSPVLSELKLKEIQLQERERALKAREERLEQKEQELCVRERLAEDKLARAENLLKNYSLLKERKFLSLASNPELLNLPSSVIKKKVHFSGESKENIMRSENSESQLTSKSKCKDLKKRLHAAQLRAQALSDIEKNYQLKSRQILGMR
Text: as §1

[1] = 100 micromolar inhibitor, 100 = no change
[2] = 100 micromolar inhibitor concentration, 100 is no change

Structure (SMILES)	residual kinase activity, FGF-R1 (FGF-R1; [2])	residual kinase activity, HIPK1 (HIPK1; [2])	residual kinase activity, YES1 (YES1; [2])	residual kinase activity, WNK1 (WNK1; [2])	residual kinase activity, ABL (ABL; [2])	residual kinase activity, MST3 (MST3; [2])	residual kinase activity, TTBK1 (TTBK1; [2])	residual kinase activity, MNK2 (MNK2; [2])	residual kinase activity, PAK5 (PAK5; [2])	residual kinase activity, ZAP70 (ZAP70; [2])	residual kinase activity, MAP4K3 (MAP4K3; [2])	residual kinase activity, NEK2a (NEK2a; [2])	remaining activity at 100 µM (FGF-R1; [2]) [%]	remaining activity at 100 µM (HIPK1; [2]) [%]	remaining activity at 100 µM (YES1; [2]) [%]	remaining activity at 100 µM (WNK1; [2]) [%]	remaining activity at 100 µM (ABL; [2]) [%]	remaining activity at 100 µM (MST3; [2]) [%]	remaining activity at 100 µM (TTBK1; [2]) [%]	remaining activity at 100 µM (MNK2; [2]) [%]	further results
CC(=O)Nc1cccc(NC(=O)c2nc3ccc(O)cc3s2)c1 [Compound 03-07, N-(3-acetamidophenyl)-6-hydroxybenzo[d]thiazole-2-carboxamide]																					remaining activity at 100 µM (FGF-R1; [1]): 66%; remaining activity at 100 µM (HIPK1; [1]): 90%; remaining activity at 100 µM (YES1; [1]): 49%; remaining activity at 100 µM (WNK1; [1]): 115%; remaining activity at 100 µM (ABL; [1]): 105%; remaining activity at 100 µM (MST3; [1]): 85%; remaining activity at 100 µM (TTBK1; [1]): 93%; remaining activity at 100 µM (MNK2; [1]): 50%; remaining activity at 100 µM (PAK5; [1]): 82%; remaining activity at 100 µM (ZAP70; [1]): 94%; remaining activity at 100 µM (MAP4K3; [1]): 63%; remaining activity at 100 µM (NEK2a; [1]): 38%
O=C(Nc1nc2cc(O)ccc2s1)c1cccnc1 [Compound 03-33]	102	41	91	103	105	90	89	36	109	110	69	99									
O=C(Nc1nc2ccc(O)cc2s1)c1ccccc1 [Compound 03-60]	84	9	65	108	54	54	46	25	70	109	56	64									
CC(=O)Nc1nc2ccc(C(F)(F)F)cc2s1 [Compound 01-90]													40	48	57	100	31	85	88	71	remaining activity at 100 µM (PAK5; [2]): 82%; remaining activity at 100 µM (ZAP70; [2]): 122%; remaining activity at 100 µM (MAP4K3; [2]): 65%; remaining activity at 100 µM (NEK2a; [2]): 78%
O=C(Nc1nc2ccc(O)cc2s1)c1ccncc1 [Compound 08-42]	54	44	79	89	76	77	70	33	79	92	48	79									
O=C(Nc1nc2cc(O)ccc2s1)c1ccccn1 [Compound 03-13]	81	76	60	100	71	78	100	66	82	105	67	89									
COc1ccc2sc(NC(C)=O)nc2c1 [Compound 03-21]													104	39	93	121	111	91	93	84	remaining activity at 100 µM (PAK5; [2]): 110%; remaining activity at 100 µM (ZAP70; [2]): 98%; remaining activity at 100 µM (MAP4K3; [2]): 75%; remaining activity at 100 µM (NEK2a; [2]): 93%
CC(=O)Nc1nc2ccc(C#N)cc2s1 [Compound 01-94]													51	37	86	101	31	71	73	50	remaining activity at 100 µM (PAK5; [2]): 70%; remaining activity at 100 µM (ZAP70; [2]): 118%; remaining activity at 100 µM (MAP4K3; [2]): 52%; remaining activity at 100 µM (NEK2a; [2]): 60%
O=C(Nc1nc2cc(O)ccc2s1)c1ccncc1 [Compound 03-11]	74	75	82	88	99	92	99	75	92	89	73	93									
